Measurements from patent US6573279B1, “Isoquinoline derivatives or salts thereof” (priority 1999, dated 2003).
Counter-ions that a name gives are not always drawn.

Columns and labels:
[1] = Test on convulsion expression; assay type: in vivo, rat; conditions: 40 mg/kg i.v. (tail vein), once; male Wister rats; observed about 1 hour
Procedure: 3. Test on Convulsion Expression
Male rats of a Wister strain having a body weight of 250 to 350 g under awaking were fixed in a cage, and the test compound was administered from a tail vein. The test compound was administered at a dose of either 20 mg/kg (i.v.) or 40 mg/kg (i.v.) once for each rat. […] The influence of the test compound on the spontaneous behavior of the rat was evaluated by the fact whether or not the convulsion was noted within the observed period.

[2] = test system: right atrium sample, spontaneous cardiac rate; experiment: Test on cardiac rate lowering effect (spontaneously beating isolated right atrium in Magnus tube); conditions: Cavia porcellus, 0.5 h; concentration lowering the spontaneous cardiac rate by 30%; guinea pig right atrium; data 30 minutes after addition
Procedure: 2. Test on Cardiac Rate Lowering Effect
The test on cardiac rate lowering effect was carried out by a method according to Walter, K., et al. Eur. J. Pharmacol., 104(1-2):9-18, 1984.
Male guinea pigs of a Hartley strain having a body weight of about 250 to 400 g were fainted away by knocking the head and killed by draining out the blood, and the heart was excised. A right atrium sample was prepared in a Tyrode's solution which was fully aerated with 95% oxygen and 5% carbon dioxide gas. The sample was applied to a hook made of stainless steel and suspended at a load tension of 1.0 g in a Magnus tube filled with a Tyrode's solution which was well aerated with 95% oxygen and 5% carbon dioxide gas, whereby the spontaneously pulsing cardiac rate was recorded. After suspending, the sample was allowed to stand for a stabilization period of 1 hour or more, the test compound was cumulatively added into a Magnus tube every 30 to 45 minutes and a concentration vs. effect curve was determined from the data after 30 minutes from the administration of the substance, whereby the effect was judged. The cardiac rate lowering effect was compared in terms of the concentration (EC30) of the substance which lowered the spontaneous cardiac rate to an extent of 30% from the data before the administration.

| melting point | SMILES | General Findings (convulsion) [1] | EC30 [2] |
| --- | --- | --- | --- |
| – | COc1cccc(C(=O)NCCN2CCCC(C(=O)N3CCc4cc(OC)c(OC)cc4C3)C2)c1 (racemic) [Example 10, (±)-N-{2-[3-(6,7-dimethoxy-1,2,3,4-tetrahydroisoquinoline-2-carbonyl)-piperidino]ethyl}-3-methoxybenzamide oxalate] | No abnormal finding | 270 nM |
| – | COc1cc(C(=O)NCCN2CCCC(C(=O)N3CCc4cc(OC)c(OC)cc4C3)C2)ccc1C (centres unmarked) [Example 28] | No abnormal finding | – |
| – | COc1cc2c(cc1OC)CN(C(=O)C1CCCN(CCNC(=O)c3ccc(F)c(F)c3)C1)CC2 (centres unmarked) [Example 29] | No abnormal finding | 290 nM |
| – | COc1cc2c(cc1OC)CN(C(=O)[C@@H]1CCCN(CCC(=O)Nc3ccc4c(c3)OCO4)C1)CC2 [Example 5, (−)-3-[(R)-3-(6,7-dimethoxy-1,2,3,4-tetrahydroisoquinoline-2-carbonyl)piperidino]-N-(3,4-methylenedioxyphenyl)propanamide L-tartrate] | No abnormal finding | 380 nM |
| – | COc1ccc(C(=O)NCCN2CCCC(C(=O)N3CCc4cc(OC)c(OC)cc4C3)C2)cc1C (centres unmarked) [Example 26] | No abnormal finding | 240 nM |
| – | COc1ccc(NC(=O)CCN2CCCC(C(=O)N3CCc4cc(OC)c(OC)cc4C3)C2)cc1 (racemic) [Example 4, (±)-3-[3-(6,7-dimethoxy-1,2,3,4-tetrahydroisoquinoline-2-carbonyl)piperidino]-N-(4-methoxyphenyl)propanamide hydrochloride] | No abnormal finding | 570 nM |
| – | COc1cc2c(cc1OC)CN(C(=O)[C@H]1CCCN(CCNC(=O)c3ccc(F)cc3)C1)CC2 [Example 50] | No abnormal finding | 310 nM |
| 154 to 155 °C | COc1cc2c(cc1OC)CN(C(=O)[C@H]1CCCN(CCNC(=O)c3ccc4c(c3)OCO4)C1)CC2 [Example 38] | No abnormal finding | 290 nM |
| – | COc1cc2c(cc1OC)CN(C(=O)C1CCCN(CCC(=O)Nc3ccc4c(c3)OCO4)C1)CC2 (racemic) [Example 2, (±)-3-[3-(6,7-dimethoxy-1,2,3,4-tetrahydroisoquinoline-2-carbonyl)piperidino]-N-(3,4-methylenedioxyphenyl)propanamide hydrochloride] | No abnormal finding | 300 nM |
| – | COc1ccc(C(=O)NCCN2CCCC(C(=O)N3CCc4cc(OC)c(OC)cc4C3)C2)cc1F (centres unmarked) [Example 27] | No abnormal finding | 410 nM |
| – | COc1cc2c(cc1OC)CN(C(=O)C1CCCN(CCNC(=O)c3ccc(F)cc3)C1)CC2 (centres unmarked) [Example 40] | No abnormal finding | 330 nM |
| – | COc1cc2c(cc1OC)CN(C(=O)[C@@H]1CCCN(CCNC(=O)c3ccc(F)cc3)C1)CC2 [Example 49] | No abnormal finding | 290 nM |
| – | COc1cc2c(cc1OC)CN(C(=O)C1CCCN(CCC(=O)Nc3ccc4ncsc4c3)C1)CC2 (centres unmarked) [Example 14] | No abnormal finding | 470 nM |
| – | COc1cc2c(cc1OC)CN(C(=O)C1CCCN(CCC(=O)Nc3cccc(Cl)c3)C1)CC2 (centres unmarked) [Example 12] | – | 270 nM |
| – | COc1cc2c(cc1OC)CN(C(=O)C1CCCN(CCNC(=O)c3ccc4c(c3)OCCO4)C1)CC2 (centres unmarked) [Example 30] | No abnormal finding | – |
| 153 to 154 °C | COc1ccc(C(=O)NCCN2CCC=C(C(=O)N3CCc4cc(OC)c(OC)cc4C3)C2)cc1 [Example 47] | No abnormal finding | – |
| – | COc1cc2c(cc1OC)CN(C(=O)[C@H]1CCCN(CCC(=O)Nc3ccc4c(c3)OCO4)C1)CC2 [Example 6, (+)-3-[(S)-3-(6,7-dimethoxy-1,2,3,4-tetrahydroisoquinoline-2-carbonyl)piperidino]-N-(3,4-methylenedioxyphenyl)propanamide D-tartrate] | No abnormal finding | 320 nM |
| 150 to 151 °C | COc1cc2c(cc1OC)CN(C(=O)[C@@H]1CCCN(CCNC(=O)c3ccc4c(c3)OCO4)C1)CC2 [Example 37] | No abnormal finding | 300 nM |
| – | COc1cc2c(cc1OC)CN(C(=O)C1CCCN(CCNC(=O)c3ccc4c(c3)OCO4)C1)CC2 (racemic) [Example 9, (±)-N-{2-[3-(6,7-dimethoxy-1,2,3,4-tetrahydrolsoquinoline-2-carbonyl)piperidino]ethyl}-3,4-methylenedioxybenzamide hydrochloride] | No abnormal finding | 270 nM |
| 178 to 180 °C | COc1cc2c(cc1OC)CN(C(=O)C1CCCN(CCNC(=O)c3ccc(F)cc3F)C1)CC2 (centres unmarked) (as salt: salt) [Example 43] | – | – |
